Data from patent US20050112573A1, “Method of detecting toxic substance” (priority 2001, published 2005).

Tested on: yeast genes (level of expressed mRNA)
Test: DNA chip analysis of expressed mRNA of yeast genes after 2 h culture with a toxic chemical substance
Format: cell-based, Saccharomyces cerevisiae S288C
Details: for The level of expressed mRNA in the presence of chemical substance/ (ratio to absence of chemical substance): stress protein genes, DNA chip; for The level of expressed mRNA in the presence of chemical substance/ in its absence, gene YPR184W: yeast gene YPR184W
Procedure: Yeast (Saccharomyces cerevtisiae S288C (α SUC2mal mel gap2 CUP1)) were cultured at 25° C. on YPD medium (yeast extract 1%, polypepton 2%, glucose 2%). One of toxic chemical substances was added to the cell at logarithmic growth phase, and the cell was further cultured for two hours. Cell was cultured without any chemical substance in the same condition, and was used as control. Concentrations of the chemical substances were defined to inhibit the growth of the yeast but not lead to death.
After the completion of cultivation, the culture was centrifuged to collect the cells. To the cells, sodium acetate buffer (50 mM sodium acetate, 10 mM EDTA, 1% SDS) was added, and the mixture was shaken at 65° C. for five minutes, followed by returning to room temperature, and obtaining the supernatant, which procedure was repeated two times. To the supernatant, ½ amount of a solution of phenol/chloroform was added, and the mixture was centrifuged to give a supernatant, which was added with an equal amount of chloroform, and the mixture was centrifuged to give a supernatant. To the supernatant, an equal amount of isopropanol containing 0.3 M sodium acetate was added, and the mixture was allowed to stand at room temperature for 30 minutes, after which the mixture was centrifuged to give a sediment of the whole RNAs. Seventy % ethanol was added to the sediment, and the mixture was again centrifuged to give a sediment, which was then dried and dissolved in water. mRNA was isolated from the whole RNAs as followings. In view of the fact that a poly A chain is attached to the 3′ terminus of mRNA, a polynucleotide having a poly T structure which was immobilized on the surface of latex beads was used to trap the mRNA, and then the mRNA was washed and eluted with spine column (Oligotex-dT30<Super>mRNA Purification Kit, Takara). Reverse transcription of the mRNA was conducted with a reverse transcriptase (Super Script II Reverse Transcriptase; catalogue No. 18064-014, GibcoBRL) using fluorescence-labeled nucleotides to give cDNAs that were introduced with Cy3-dUTP or Cy5-dUTP during the reverse transcription.
The labeled cDNAs were dissolved in TE buffer (10 mM Tris-HCl/1 mM EDTA, pH8.0), and the solution was dropped on the DNA chip containing the whole genes of yeast (DNA Chip Research Inc. Japan) so that the cDNAs were hybridized on the DNA chip at 65° C. for over 12 hours. The fluoresces intensity of the DNA chip was read with a scanner, and the ratio relative to the fluorescence intensity resulting from the absence of chemical substance was estimated as the following, which is shown in Tables 1 to 9: [formula]
In the Tables, “Intensity” indicated in the rightmost column is a value of the level of expressed mRNA of each gene in control cells as divided by the average level of the expressions of the whole genes.

COc1cc(CNC(=O)CCCCC=CC(C)C)ccc1O [(12), 8-methyl-N-vanillyl-6-nonenamide]
1.2: The level of expressed mRNA in the presence of chemical substance/The level of expressed mRNA in the absence of chemical substance (yeast gene YNR069C) | The level of expressed mRNA in the presence of chemical substance/ (ratio to absence), gene YOL096C (yeast gene YOL096C, mitochondria-located protein genes, 2 h culture with chemical) | The level of expressed mRNA in the presence of chemical substance/ (in its absence), gene YOL096C (yeast gene YOL096C, ratio of DNA chip fluorescence intensity to that without chemical substance) | The level of expressed mRNA in the presence of chemical substance/The level of expressed mRNA in the absence of chemical substance (yeast gene YOR036W) | The level of expressed mRNA in the presence of chemical substance/ (in its absence), gene YOR103C (yeast gene YOR103C, ratio of DNA chip fluorescence intensity to that without chemical substance) | The level of expressed mRNA in the presence of chemical substance/The level of expressed mRNA in the absence of chemical substance (yeast gene YPR103W)
0.4: The level of expressed mRNA in the presence of chemical substance/ (ratio to absence of chemical substance) (yeast gene YOR009W)
1.1: The level of expressed mRNA in the presence of chemical substance/The level of expressed mRNA in the absence of chemical substance (yeast gene YNL093W) | The level of expressed mRNA in the presence of chemical substance/ (in its absence), gene YNL192W (yeast gene YNL192W, ratio of DNA chip fluorescence intensity to that without chemical substance) | The level of expressed mRNA in the presence of chemical substance/The level of expressed mRNA in the absence of chemical substance (yeast gene YOL013C) | The level of expressed mRNA in the presence of chemical substance/The level of expressed mRNA in the absence of chemical substance (yeast gene YOL164W) | The level of expressed mRNA in the presence of chemical substance/ (ratio to absence), gene YOR316C (yeast gene YOR316C, mitochondria-located protein genes, 2 h culture with chemical) | The level of expressed mRNA in the presence of chemical substance/The level of expressed mRNA in the absence of chemical substance (yeast gene YOR383C)
0.8: The level of expressed mRNA in the presence of chemical substance/ (in its absence), gene YNL025C (yeast gene YNL025C, ratio of DNA chip fluorescence intensity to that without chemical substance) | The level of expressed mRNA in the presence of chemical substance/ (ratio to absence of chemical substance) (yeast gene YNL064C) | The level of expressed mRNA in the presence of chemical substance/The level of expressed mRNA in the absence of chemical substance (yeast gene YNR010W) | The level of expressed mRNA in the presence of chemical substance/ (in its absence), gene YOR180C (yeast gene YOR180C, ratio of DNA chip fluorescence intensity to that without chemical substance) | The level of expressed mRNA in the presence of chemical substance/The level of expressed mRNA in the absence of chemical substance (yeast gene YOR181W) | The level of expressed mRNA in the presence of chemical substance/The level of expressed mRNA in the absence of chemical substance (yeast gene YOR259C) | The level of expressed mRNA in the presence of chemical substance/ (ratio to absence of chemical substance) (yeast gene YPL059W) | The level of expressed mRNA in the presence of chemical substance/ (ratio to absence), gene YPL134C (yeast gene YPL134C, mitochondria-located protein genes, 2 h culture with chemical) | The level of expressed mRNA in the presence of chemical substance/ (ratio to absence of chemical substance) (yeast gene YPL140C) | The level of expressed mRNA in the presence of chemical substance/ (in its absence), gene YPR165W (yeast gene YPR165W, ratio of DNA chip fluorescence intensity to that without chemical substance)
2.5: The level of expressed mRNA in the presence of chemical substance/The level of expressed mRNA in the absence of chemical substance (yeast gene YOR117W)
1.4: The level of expressed mRNA in the presence of chemical substance/The level of expressed mRNA in the absence of chemical substance (yeast gene YOR288C) | The level of expressed mRNA in the presence of chemical substance/ in its absence, gene YPR184W (energy system protein genes, 2 h culture with the chemical, ratio to control without chemical) | The level of expressed mRNA in the presence of chemical substance/ in its absence, gene YPR184W (ratio of DNA chip fluorescence intensity to that without chemical substance)
0.6: The level of expressed mRNA in the presence of chemical substance/ (in its absence), gene YOL116W (yeast gene YOL116W, ratio of DNA chip fluorescence intensity to that without chemical substance) | The level of expressed mRNA in the presence of chemical substance/ (ratio to absence of chemical substance) (yeast gene YPR005C)
0.7: The level of expressed mRNA in the presence of chemical substance/The level of expressed mRNA in the absence of chemical substance (yeast gene YNL006W) | The level of expressed mRNA in the presence of chemical substance/The level of expressed mRNA in the absence of chemical substance (yeast gene YNL007C) | The level of expressed mRNA in the presence of chemical substance/ (ratio to absence), gene YNL073W (yeast gene YNL073W, mitochondria-located protein genes, 2 h culture with chemical) | The level of expressed mRNA in the presence of chemical substance/ (ratio to absence of chemical substance) (yeast gene YNR076W) | The level of expressed mRNA in the presence of chemical substance/ (ratio to absence of chemical substance) (yeast gene YOR008C) | The level of expressed mRNA in the presence of chemical substance/The level of expressed mRNA in the absence of chemical substance (yeast gene YOR132W) | The level of expressed mRNA in the presence of chemical substance/ (in its absence), gene YOR348C (yeast gene YOR348C, ratio of DNA chip fluorescence intensity to that without chemical substance) | The level of expressed mRNA in the presence of chemical substance/The level of expressed mRNA in the absence of chemical substance (yeast gene YPL089C) | The level of expressed mRNA in the presence of chemical substance/ (in its absence), gene YPL148C (yeast gene YPL148C, ratio of DNA chip fluorescence intensity to that without chemical substance)
1.5: The level of expressed mRNA in the presence of chemical substance/The level of expressed mRNA in the absence of chemical substance (yeast gene YOR185C) | The level of expressed mRNA in the presence of chemical substance/The level of expressed mRNA in the absence of chemical substance (yeast gene YOR198C) | The level of expressed mRNA in the presence of chemical substance/The level of expressed mRNA in the absence of chemical substance (yeast gene YPL154C)
0.9: The level of expressed mRNA in the presence of chemical substance/The level of expressed mRNA in the absence of chemical substance (yeast gene YOR124C) | The level of expressed mRNA in the presence of chemical substance/ (in its absence), gene YOR251C (yeast gene YOR251C, ratio of DNA chip fluorescence intensity to that without chemical substance) | The level of expressed mRNA in the presence of chemical substance/The level of expressed mRNA in the absence of chemical substance (yeast gene YOR261C) | The level of expressed mRNA in the presence of chemical substance/The level of expressed mRNA in the absence of chemical substance (yeast gene YOR355W) | The level of expressed mRNA in the presence of chemical substance/ (in its absence), gene YOR363C (yeast gene YOR363C, ratio of DNA chip fluorescence intensity to that without chemical substance) | The level of expressed mRNA in the presence of chemical substance/ (ratio to absence), gene YPL040C (yeast gene YPL040C, mitochondria-located protein genes, 2 h culture with chemical) | The level of expressed mRNA in the presence of chemical substance/The level of expressed mRNA in the absence of chemical substance (yeast gene YPL109C) | The level of expressed mRNA in the presence of chemical substance/The level of expressed mRNA in the absence of chemical substance (yeast gene YPL149W) | The level of expressed mRNA in the presence of chemical substance/ (ratio to absence of chemical substance) (yeast gene YPL194W)
1.0: The level of expressed mRNA in the presence of chemical substance/The level of expressed mRNA in the absence of chemical substance (yeast gene YMR314W) | The level of expressed mRNA in the presence of chemical substance/The level of expressed mRNA in the absence of chemical substance (yeast gene YNL333W) | The level of expressed mRNA in the presence of chemical substance/ (in its absence), gene YNR072W (yeast gene YNR072W, ratio of DNA chip fluorescence intensity to that without chemical substance) | The level of expressed mRNA in the presence of chemical substance/ (in its absence), gene YOL108C (yeast gene YOL108C, ratio of DNA chip fluorescence intensity to that without chemical substance) | The level of expressed mRNA in the presence of chemical substance/The level of expressed mRNA in the absence of chemical substance (yeast gene YPR108W)
1.3: The level of expressed mRNA in the presence of chemical substance/ (ratio to absence of chemical substance) (yeast gene YOL161C) | The level of expressed mRNA in the presence of chemical substance/The level of expressed mRNA in the absence of chemical substance (yeast gene YOR157C)
0.5: The level of expressed mRNA in the presence of chemical substance/ (ratio to absence of chemical substance) (yeast gene YOR010C)
